Experimental data reported in the supplement of paper PMC13207355.

Columns and labels:
Conditions in all cases: exposure time: 72 h
E31 [1] = patient-derived glioblastoma stem cells of proneural subtype; experiment: surviving fraction (nuclei count normalised to DMSO); higher = more cells surviving (less toxic)
E57 [2] = patient-derived glioblastoma stem cells of mesenchymal subtype; experiment: as above
E34 [3] = patient-derived glioblastoma stem cells of proneural subtype; experiment: as above
E21 [4] = patient-derived glioblastoma stem cells of mesenchymal subtype; experiment: as above
E28 [5] = patient-derived glioblastoma stem cells of classical subtype; experiment: as above
E13 [6] = patient-derived glioblastoma stem cells of classical subtype; experiment: as above
FT3469 [7] = normal neural stem cell line; experiment: as above
E31 [8] = experiment: phenotypic distance (Euclidean, principal components) from DMSO controls (arbitrary units); higher = stronger morphological change
E57 [9] = experiment: as above
E34 [10] = experiment: as above
E21 [11] = experiment: as above
E28 [12] = experiment: as above
E13 [13] = experiment: as above
FT3469 [14] = experiment: as above
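For phenotypic distance (Euclidean, principal components) from DMSO controls in this document: cell Painting imaging in 384-well plates, CellProfiler features reduced to at least 20 principal components, Euclidean distance versus same-plate DMSO vehicle wells (0.1% v/v), median over six images per well.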
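For surviving fraction (nuclei count normalised to DMSO) in this document: nuclei counted by high-content imaging of Hoechst-stained cells in laminin-coated 384-well plates, relative to 0.1% DMSO vehicle wells, with staurosporine as cell-death control.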

COc1cccc2c1C(=O)c1c(O)c3c(c(O)c1C2=O)C[C@@](O)(C(=O)CO)C[C@@H]3O[C@H]1C[C@H](N)[C@H](O[C@@H]2CCCCO2)[C@H](C)O1 [Pirarubicin]
Conditions	phenotypic distance	surviving fraction
E13 [6], 4.1 nM	–	0.384
E13 [6], 12.3 nM	–	0.325
E13 [6], 37 nM	–	0.263
E13 [6], 111.1 nM	–	0.0805
E13 [6], 333.3 nM	–	0.1
E13 [6], 1000 nM	–	0.0786
E13 [6], 3000 nM	–	0.0218
E13 [13], 4.1 nM	5.19	–
E13 [13], 12.3 nM	5.1	–
E13 [13], 37 nM	4.19	–
E13 [13], 111.1 nM	5.27	–
E13 [13], 333.3 nM	5.59	–
E13 [13], 1000 nM	5.06	–
E13 [13], 3000 nM	6.07	–
E21 [4], 4.1 nM	–	0.251
E21 [4], 12.3 nM	–	0.305
E21 [4], 37 nM	–	0.194
E21 [4], 111.1 nM	–	0.13
E21 [4], 333.3 nM	–	0.0649
E21 [4], 1000 nM	–	0.0703
E21 [4], 3000 nM	–	0.0202
E21 [11], 4.1 nM	5.11	–
E21 [11], 12.3 nM	7.13	–
E21 [11], 37 nM	6.25	–
E21 [11], 111.1 nM	6.76	–
E21 [11], 333.3 nM	7.24	–
E21 [11], 1000 nM	6.47	–
E21 [11], 3000 nM	9.02	–
E28 [5], 4.1 nM	–	0.322
E28 [5], 12.3 nM	–	0.276
E28 [5], 37 nM	–	0.244
E28 [5], 111.1 nM	–	0.14
E28 [5], 333.3 nM	–	0.347
E28 [5], 1000 nM	–	0.209
E28 [5], 3000 nM	–	0.0681
E28 [12], 4.1 nM	4.14	–
E28 [12], 12.3 nM	4.17	–
E28 [12], 37 nM	4.19	–
E28 [12], 111.1 nM	5.37	–
E28 [12], 333.3 nM	4.96	–
E28 [12], 1000 nM	5.04	–
E28 [12], 3000 nM	4.01	–
E31 [1], 4.1 nM	–	0.141
E31 [1], 12.3 nM	–	0.184
E31 [1], 37 nM	–	0.101
E31 [1], 111.1 nM	–	0.058
E31 [1], 333.3 nM	–	0.107
E31 [1], 1000 nM	–	0.0565
E31 [1], 3000 nM	–	0.0104
E31 [8], 4.1 nM	3.76	–
E31 [8], 12.3 nM	3.17	–
E31 [8], 37 nM	4.87	–
E31 [8], 111.1 nM	6.24	–
E31 [8], 333.3 nM	4.82	–
E31 [8], 1000 nM	7.62	–
E31 [8], 3000 nM	10.2	–
E34 [3], 4.1 nM	–	0.51
E34 [3], 12.3 nM	–	0.559
E34 [3], 37 nM	–	0.488
E34 [3], 111.1 nM	–	0.527
E34 [3], 333.3 nM	–	0.331
E34 [3], 1000 nM	–	0.488
E34 [3], 3000 nM	–	0.214
E34 [10], 4.1 nM	3.49	–
E34 [10], 12.3 nM	3.06	–
E34 [10], 37 nM	2.17	–
E34 [10], 111.1 nM	4.14	–
E34 [10], 333.3 nM	2.6	–
E34 [10], 1000 nM	3.14	–
E34 [10], 3000 nM	5.46	–
E57 [2], 4.1 nM	–	0.226
E57 [2], 12.3 nM	–	0.199
E57 [2], 37 nM	–	0.176
E57 [2], 111.1 nM	–	0.106
E57 [2], 333.3 nM	–	0.126
E57 [2], 1000 nM	–	0.122
E57 [2], 3000 nM	–	0.0208
E57 [9], 4.1 nM	7.85	–
E57 [9], 12.3 nM	8.69	–
E57 [9], 37 nM	8.43	–
E57 [9], 111.1 nM	8.17	–
E57 [9], 333.3 nM	5.64	–
E57 [9], 1000 nM	5.25	–
E57 [9], 3000 nM	7.33	–
FT3469 [7], 4.1 nM	–	0.631
FT3469 [7], 12.3 nM	–	0.549
FT3469 [7], 37 nM	–	0.534
FT3469 [7], 111.1 nM	–	0.31
FT3469 [7], 333.3 nM	–	0.381
FT3469 [7], 1000 nM	–	0.354
FT3469 [7], 3000 nM	–	0.144
FT3469 [14], 4.1 nM	2.41	–
FT3469 [14], 12.3 nM	2.29	–
FT3469 [14], 37 nM	3.24	–
FT3469 [14], 111.1 nM	6.3	–
FT3469 [14], 333.3 nM	5.37	–
FT3469 [14], 1000 nM	5.38	–
FT3469 [14], 3000 nM	7.66	–
